In US20240166642A1, “INHIBITORS OF MYELOPEROXIDASE” (ASTRAZENECA AB, priority 2022, published 2024):

What was measured:
[1] = molecular target: MPO (purified from HL60 cells) (Homo sapiens (Human), UniProt P05164); assay: MPO activity (IC50), luminol chemiluminescence assay; format: biochemical; settings: PBS pH7.4, luminol 100 μM, H2O2 50 μM, chemiluminescence recorded after 15 minutes
Description: (§1) The experiments were performed in phosphate-buffered saline (PBS), pH7.4. A 10 mM luminol (A4695, Sigma Aldrich, St Louis, MO, USA) stock was prepared in distilled water and further diluted in PBS to a final concentration of 100 μM. H2O2 was prepared as 1 mM stock in PBS, yielding a final concentration of 50 μM after addition into the assay. The compounds were serially diluted in DMSO in a separate plate as a 100× stock solution, and MPO (purified from HL60 cells) and TPO (produced in insect cells, RSR Ltd, Cardiff, UK), were diluted to yield a final concentration of approximately 14 and 150 ng/mL, generating 5600 and 9300 light counts per seconds (LCPS) upon incubation with luminol.
(§2) The experiment was run by pipetting 2 μL 100× stock solution of the compound and 200 μL diluted enzyme in PBS into wells in a 96-well Optiplate (6005290, Perkin Elmer/Thermo Fischer, Waltham, MS, USA), followed by addition of 10 μL H2O2 containing PBS. Chemiluminescence measurement (Perkin Elmer Wallac Microbeta Trilux 1450-029 (12-detector), Turkuu, Finland) was started directly and recorded after 2, 10 and 15 minutes.

[2] = molecular target: TPO (produced in insect cells, RSR Ltd) (Homo sapiens (Human), UniProt P07202); assay: TPO activity (IC50), luminol chemiluminescence assay; format: biochemical; settings: PBS pH7.4, luminol 100 μM, H2O2 50 μM, chemiluminescence recorded after 15 minutes
Description: as §1, §2

TPO (produced in insect cells, RSR Ltd), sequence (P07202 19-933): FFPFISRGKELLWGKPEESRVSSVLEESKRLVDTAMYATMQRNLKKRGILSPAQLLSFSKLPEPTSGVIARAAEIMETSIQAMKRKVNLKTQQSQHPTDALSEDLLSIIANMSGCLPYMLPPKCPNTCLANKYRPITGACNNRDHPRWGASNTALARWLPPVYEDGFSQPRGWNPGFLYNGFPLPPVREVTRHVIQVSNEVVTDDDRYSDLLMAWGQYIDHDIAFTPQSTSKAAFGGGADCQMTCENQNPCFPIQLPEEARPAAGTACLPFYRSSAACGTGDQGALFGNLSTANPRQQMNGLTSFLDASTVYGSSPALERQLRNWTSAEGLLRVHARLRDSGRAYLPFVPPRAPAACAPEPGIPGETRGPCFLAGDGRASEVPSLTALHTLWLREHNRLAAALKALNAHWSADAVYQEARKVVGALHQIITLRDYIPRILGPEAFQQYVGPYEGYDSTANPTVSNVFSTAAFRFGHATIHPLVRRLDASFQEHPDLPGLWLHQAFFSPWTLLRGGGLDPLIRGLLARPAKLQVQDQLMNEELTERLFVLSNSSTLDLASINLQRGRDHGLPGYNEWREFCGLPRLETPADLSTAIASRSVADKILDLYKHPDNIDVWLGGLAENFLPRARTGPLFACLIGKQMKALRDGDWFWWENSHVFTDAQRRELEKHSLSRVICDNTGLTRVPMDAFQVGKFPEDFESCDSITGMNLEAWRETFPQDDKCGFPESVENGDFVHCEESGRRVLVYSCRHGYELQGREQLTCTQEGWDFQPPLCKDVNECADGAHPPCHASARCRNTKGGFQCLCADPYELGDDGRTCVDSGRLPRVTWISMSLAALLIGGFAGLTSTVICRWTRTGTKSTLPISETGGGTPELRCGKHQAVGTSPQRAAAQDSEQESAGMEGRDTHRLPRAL
MPO (purified from HL60 cells), sequence (P05164 49-745): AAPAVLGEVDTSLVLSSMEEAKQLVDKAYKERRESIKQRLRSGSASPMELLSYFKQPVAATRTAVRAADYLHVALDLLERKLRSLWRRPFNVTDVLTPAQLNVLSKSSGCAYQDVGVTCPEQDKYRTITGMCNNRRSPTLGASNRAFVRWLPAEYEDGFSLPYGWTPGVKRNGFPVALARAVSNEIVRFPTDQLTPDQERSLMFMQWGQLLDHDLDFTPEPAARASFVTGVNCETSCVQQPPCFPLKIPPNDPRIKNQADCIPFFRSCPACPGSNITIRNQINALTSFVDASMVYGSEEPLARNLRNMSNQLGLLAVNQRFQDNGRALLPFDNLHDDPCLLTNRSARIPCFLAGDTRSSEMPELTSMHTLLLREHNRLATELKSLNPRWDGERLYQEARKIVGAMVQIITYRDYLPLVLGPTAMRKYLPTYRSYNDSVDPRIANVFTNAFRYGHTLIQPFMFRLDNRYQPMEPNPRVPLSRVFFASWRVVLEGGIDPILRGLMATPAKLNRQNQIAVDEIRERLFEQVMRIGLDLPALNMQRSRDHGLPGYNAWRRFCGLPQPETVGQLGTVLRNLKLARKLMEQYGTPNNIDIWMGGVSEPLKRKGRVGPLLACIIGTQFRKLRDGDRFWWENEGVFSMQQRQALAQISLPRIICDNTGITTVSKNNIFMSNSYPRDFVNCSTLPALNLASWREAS

## O=c1[nH]c(=S)n(Cc2ccccc2[C@H]2C[C@@H](C(F)(F)F)CCN2)c2nc[nH]c12 [Example 13a, 2-Thioxo-3-(2-((2R,4S)-4-(trifluoromethyl)piperidin-2-yl)benzyl)-1,2,3,7-tetrahydro-6H-purin-6-one]
[1]
  IC50: 16 nM
[2]
  IC50: 1050 nM

## O=c1[nH]c(=S)n(Cc2ccc(Cl)cc2[C@H]2CCCN2)c2cc[nH]c12 (single isomer, unassigned) [Example 3b]
[1]
  IC50: 27.5 nM
[2]
  IC50: 700 nM

## O=c1[nH]c(=S)n(Cc2ccc(Cl)cc2[C@H]2COCCN2)c2cc[nH]c12 (single isomer, unassigned) [Example 4a]
[1]
  IC50: 18.7 nM
[2]
  IC50: 370 nM

## O=c1[nH]c(=S)n(Cc2ccccc2C2CCNCC2)c2cc[nH]c12 [Example 30, 1-(2-(Piperidin-4-yl)benzyl)-2-thioxo-1,2,3,5-tetrahydro-4H-pyrrolo[3,2-d]pyrimidin-4-one]
[1]
  IC50: 29 nM
[2]
  IC50: 590 nM

## O=c1[nH]c(=S)n(Cc2ccncc2[C@H]2C[C@@H](C(F)(F)F)CCN2)c2cc[nH]c12 (racemic) [Example 22, rac-2-Thioxo-1-((3-((2R,4S)-4-(trifluoromethyl)piperidin-2-yl)pyridin-4-yl)methyl)-1,2,3,5-tetrahydro-4H-pyrrolo[3,2-d]pyrimidin-4-one]
[1]
  IC50: 11.5 nM
[2]
  IC50: 950 nM

## O=c1[nH]c(=S)n(Cc2ccc3c(c2)CNC3)c2cc[nH]c12 [Example 25, 1-(Isoindolin-5-ylmethyl)-2-thioxo-1,2,3,5-tetrahydro-4H-pyrrolo[3,2-d]pyrimidin-4-one]
[1]
  IC50: 103 nM
[2]
  IC50: 570 nM

## O=c1[nH]c(=S)n(Cc2ccc(Cl)cc2[C@H]2CCCCCN2)c2nc[nH]c12 [Example 7, (R)-3-(2-(Azepan-2-yl)-4-chlorobenzyl)-2-thioxo-1,2,3,7-tetrahydro-6H-purin-6-one]
[1]
  IC50: 7.1 nM
[2]
  IC50: 610 nM

## O=c1[nH]c(=S)n(Cc2cccnc2C2CCCCN2)c2cc[nH]c12 (stereo not shown) [Example 20, 1-((2-(Piperidin-2-yl)pyridin-3-yl)methyl)-2-thioxo-1,2,3,5-tetrahydro-4H-pyrrolo[3,2-d]pyrimidin-4-one]
[1]
  IC50: 46 nM
[2]
  IC50: 2760 nM

## O=c1[nH]c(=S)n(Cc2ccccc2[C@H]2C[C@H](C(F)(F)F)CCN2)c2nc[nH]c12 (single isomer, unassigned) [Example 18a]
[1]
  IC50: 56.3 nM
[2]
  IC50: 730 nM

## O=c1[nH]c(=S)n(Cc2ccccc2[C@@H]2C[C@@H](C(F)(F)F)CCN2)c2cc[nH]c12 (stereo in doubt) [Example 17b, rac-2-thioxo-1-(2-((2R,4R)-4-(trifluoromethyl)piperidin-2-yl)benzyl)-1,2,3,5-tetrahydro-4H-pyrrolo[3,2-d]pyrimidin-4-one]
[1]
  IC50: 3.4 nM
[2]
  IC50: 630 nM

## O=c1[nH]c(=S)n(Cc2ccccc2C2CCCNC2)c2cc[nH]c12 (stereo not shown) [Example 28, 1-(2-(Piperidin-3-yl)benzyl)-2-thioxo-1,2,3,5-tetrahydro-4H-pyrrolo[3,2-d]pyrimidin-4-one]
[1]
  IC50: 3 nM
[2]
  IC50: 680 nM

## O=c1[nH]c(=S)n(Cc2ccc(Cl)cc2[C@H]2CCCCN2)c2cc[nH]c12 (single isomer, unassigned) [Example 2a]
[1]
  IC50: 12.2 nM
[2]
  IC50: 1040 nM

## O=c1[nH]c(=S)n(Cc2ccc(Cl)cc2[C@H]2CCCCN2)c2cc[nH]c12 (single isomer, unassigned) [Example 2b]
[1]
  IC50: 3.6 nM
[2]
  IC50: 550 nM

## O=c1[nH]c(=S)n(Cc2ccccc2[C@H]2CC(F)(F)CCN2)c2cc[nH]c12 (single isomer, unassigned) [Example 12a]
[1]
  IC50: 27 nM
[2]
  IC50: 670 nM

## O=c1[nH]c(=S)n(Cc2ccccc2C2CC(F)(F)CCN2)c2nc[nH]c12 (stereo not shown) [Example 14, 3-(2-(4,4-Difluoropiperidin-2-yl)benzyl)-2-thioxo-1,2,3,7-tetrahydro-6H-purin-6-one]
[1]
  IC50: 7.2 nM
[2]
  IC50: 540 nM

## NC1(c2cccc(Cn3c(=S)[nH]c(=O)c4[nH]ccc43)c2)CCC1 [Example 27, 1-(3-(1-Aminocyclobutyl)benzyl)-2-thioxo-1,2,3,5-tetrahydro-4H-pyrrolo[3,2-d]pyrimidin-4-one]
[1]
  IC50: 5 nM
[2]
  IC50: 670 nM

## O=c1[nH]c(=S)n(Cc2cccnc2[C@H]2C[C@@H](C(F)(F)F)CCN2)c2cc[nH]c12 (single isomer, unassigned) [Example 16a]
[1]
  IC50: 31.4 nM
[2]
  IC50: 1610 nM

## O=c1[nH]c(=S)n(Cc2ccccc2C2CCC(C(F)(F)F)CN2)c2cc[nH]c12 (stereo not shown) [Example 11, 2-Thioxo-1-(2-(5-(trifluoromethyl)piperidin-2-yl)benzyl)-1,2,3,5-tetrahydro-4H-pyrrolo[3,2-d]pyrimidin-4-one]
[1]
  IC50: 13 nM
[2]
  IC50: 540 nM

## O=c1[nH]c(=S)n(Cc2ccccc2[C@@H]2C[C@H](C(F)(F)F)CCN2)c2nc[nH]c12 [Example 13b, 2-Thioxo-3-(2-((2S,4R)-4-(trifluoromethyl)piperidin-2-yl)benzyl)-1,2,3,7-tetrahydro-6H-purin-6-one]
[1]
  IC50: 2.3 nM
[2]
  IC50: 430 nM

## O=c1[nH]c(=S)n(Cc2ncccc2[C@H]2C[C@@H](C(F)(F)F)CCN2)c2cc[nH]c12 (racemic) [Example 21, rac-2-Thioxo-1-((3-((2R,4S)-4-(trifluoromethyl)piperidin-2-yl)pyridin-2-yl)methyl)-1,2,3,5-tetrahydro-4H-pyrrolo[3,2-d]pyrimidin-4-one]
[1]
  IC50: 5.7 nM
[2]
  IC50: 540 nM

## O=c1[nH]c(=S)n(Cc2ccccc2[C@H]2CCCCN2)c2cc[nH]c12 (single isomer, unassigned) [Example 1a]
[1]
  IC50: 12.1 nM
[2]
  IC50: 1010 nM

## O=c1[nH]c(=S)n(Cc2ccccc2[C@@H]2CCCCCN2)c2cc[nH]c12 (single isomer, unassigned) [Example 6b]
[1]
  IC50: 2.8 nM
[2]
  IC50: 300 nM

## O=c1[nH]c(=S)n(Cc2cccnc2[C@H]2C[C@@H](C(F)(F)F)CCN2)c2cc[nH]c12 (single isomer, unassigned) [Example 16b]
[1]
  IC50: 3.9 nM
[2]
  IC50: 780 nM

## O=c1[nH]c(=S)n(Cc2cccnc2[C@H]2C[C@H](C(F)(F)F)CCN2)c2cc[nH]c12 (single isomer, unassigned) [Example 31b]
[1]
  IC50: 48 nM
[2]
  IC50: 2900 nM

## O=c1[nH]c(=S)n(Cc2ccccc2[C@@H]2CCCCCN2)c2cc[nH]c12 (single isomer, unassigned) [Example 6a]
[1]
  IC50: 19.6 nM
[2]
  IC50: 420 nM

## O=c1[nH]c(=S)n(Cc2ccccc2[C@H]2C[C@H](C(F)(F)F)CCN2)c2cc[nH]c12 (stereo in doubt) [Example 17a, rel-2-Thioxo-1-(2-((2R,4R)-4-(trifluoromethyl)piperidin-2-yl)benzyl)-1,2,3,5-tetrahydro-4H-pyrrolo[3,2-d]pyrimidin-4-one]
[1]
  IC50: 16.5 nM
[2]
  IC50: 760 nM

## O=c1[nH]c(=S)n(Cc2ccc(Cl)cc2[C@H]2CCCN2)c2cc[nH]c12 (single isomer, unassigned) [Example 3a]
[1]
  IC50: 3 nM
[2]
  IC50: 550 nM

## O=c1[nH]c(=S)n(Cc2ccccc2[C@H]2CC(F)(F)CCN2)c2cc[nH]c12 (single isomer, unassigned) [Example 12b]
[1]
  IC50: 2.7 nM
[2]
  IC50: 320 nM

## O=c1[nH]c(=S)n(Cc2ccc(Cl)cc2[C@H]2COCCN2)c2cc[nH]c12 (single isomer, unassigned) [Example 4b]
[1]
  IC50: 127 nM
[2]
  IC50: 810 nM
